{"source": "patent US20020132812A1", "about": "“Oral hypoglycaemic agents” (priority 2000, published 2002)", "key": {"[1]": {"target": "T1, ATP-sensitive K+-channels (KATP-channels) (Mus musculus, UniProt Q61743)", "T1 construct": "Pancreatic islets were isolated from fed NMRI mice (15-23 g); endogenous in cells; host or cells: single beta-cells dispersed from pancreatic islets of NMRI mice", "T1 sequence (Q61743 whole entry)": "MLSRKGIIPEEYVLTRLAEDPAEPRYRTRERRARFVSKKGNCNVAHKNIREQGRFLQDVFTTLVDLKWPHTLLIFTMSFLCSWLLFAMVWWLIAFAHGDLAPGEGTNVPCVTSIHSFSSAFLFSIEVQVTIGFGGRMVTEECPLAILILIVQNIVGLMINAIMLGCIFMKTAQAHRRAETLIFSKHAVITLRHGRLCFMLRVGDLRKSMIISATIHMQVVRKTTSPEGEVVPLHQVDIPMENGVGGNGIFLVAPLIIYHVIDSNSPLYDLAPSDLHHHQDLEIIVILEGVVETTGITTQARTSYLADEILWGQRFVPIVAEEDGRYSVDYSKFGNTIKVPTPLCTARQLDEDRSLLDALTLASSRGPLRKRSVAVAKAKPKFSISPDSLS", "T1 sequence (B2RUS7 1-1588 partner)": "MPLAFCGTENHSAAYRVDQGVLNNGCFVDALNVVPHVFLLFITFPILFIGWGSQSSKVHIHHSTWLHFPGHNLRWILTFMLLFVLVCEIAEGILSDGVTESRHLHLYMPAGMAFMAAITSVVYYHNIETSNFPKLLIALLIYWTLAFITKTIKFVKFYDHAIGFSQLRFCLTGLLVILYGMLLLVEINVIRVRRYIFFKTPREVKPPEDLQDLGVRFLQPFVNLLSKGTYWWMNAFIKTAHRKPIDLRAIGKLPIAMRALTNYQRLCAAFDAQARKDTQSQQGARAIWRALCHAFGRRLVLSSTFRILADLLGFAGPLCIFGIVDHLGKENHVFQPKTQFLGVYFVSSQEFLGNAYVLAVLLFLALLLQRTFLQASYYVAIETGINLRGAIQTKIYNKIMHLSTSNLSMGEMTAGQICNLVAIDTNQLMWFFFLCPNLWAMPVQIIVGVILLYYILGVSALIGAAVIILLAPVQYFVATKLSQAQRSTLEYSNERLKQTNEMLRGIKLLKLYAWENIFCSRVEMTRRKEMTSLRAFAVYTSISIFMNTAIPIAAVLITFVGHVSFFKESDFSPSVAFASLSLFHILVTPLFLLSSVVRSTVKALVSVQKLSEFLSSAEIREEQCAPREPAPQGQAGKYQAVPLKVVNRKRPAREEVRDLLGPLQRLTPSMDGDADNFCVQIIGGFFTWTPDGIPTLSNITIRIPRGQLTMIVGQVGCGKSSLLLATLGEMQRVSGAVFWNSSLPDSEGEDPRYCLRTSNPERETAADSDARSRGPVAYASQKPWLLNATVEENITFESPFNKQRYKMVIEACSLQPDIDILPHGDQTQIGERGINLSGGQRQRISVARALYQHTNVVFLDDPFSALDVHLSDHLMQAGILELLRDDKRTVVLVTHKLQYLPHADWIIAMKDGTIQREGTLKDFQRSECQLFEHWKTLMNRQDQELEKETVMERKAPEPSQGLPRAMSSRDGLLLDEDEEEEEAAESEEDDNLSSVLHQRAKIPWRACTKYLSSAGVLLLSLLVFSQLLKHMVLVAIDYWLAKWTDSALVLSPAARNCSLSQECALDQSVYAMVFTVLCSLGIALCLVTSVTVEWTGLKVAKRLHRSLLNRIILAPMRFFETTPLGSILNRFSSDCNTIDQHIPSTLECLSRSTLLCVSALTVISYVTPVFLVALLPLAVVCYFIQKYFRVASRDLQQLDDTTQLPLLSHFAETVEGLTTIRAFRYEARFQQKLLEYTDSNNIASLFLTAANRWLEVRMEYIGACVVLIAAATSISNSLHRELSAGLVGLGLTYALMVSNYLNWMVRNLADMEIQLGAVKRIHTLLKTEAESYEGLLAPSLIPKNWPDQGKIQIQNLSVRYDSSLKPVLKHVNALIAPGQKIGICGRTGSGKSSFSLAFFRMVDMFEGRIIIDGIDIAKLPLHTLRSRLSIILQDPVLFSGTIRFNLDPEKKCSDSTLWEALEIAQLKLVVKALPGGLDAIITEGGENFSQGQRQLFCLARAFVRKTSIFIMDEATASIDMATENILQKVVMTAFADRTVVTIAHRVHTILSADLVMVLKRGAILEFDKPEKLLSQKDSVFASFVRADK", "experiment": "Whole-cell ATP-sensitive K+ current (KATP-channel activity) in single mouse β-cells", "assay_type": "cell-based", "conditions": "100 μM compound; six experiments; cells dialysed with 0.3 mM ATP and 0.3 mM ADP", "source_text": "(§1) Pancreatic islets were isolated from fed NMRI mice (15-23 g). Briefly, the mice were stunned by a blow against the head and killed by cervical dislocation. The pancreas was quickly removed and pancreatic islets were isolated by collagenase (Sigma) digestion (Gromada et al. J. Physiol., Vol. 518 (3) pp. 745-759, 1999). For insulin release experiments, the islets were kept in RPMI-1640 tissue culture medium overnight before use. […]\n(§2) Patch pipettes were drawn from borosilicate glass capillaries. […] The currents were recorded using an Axopatch 200B patch clamp amplifier (Axon Instruments, Foster City, Calif., USA), digitized and stored in a computer using the Digidata AD-converter and the software pClamp (version 6.0; Axon Instruments). Alternatively, KATP-currents were recorded using an EPC-9 patch clamp amplifier and the Pulse software (v. 8.01; HEKA Elektronik, Lamprecht/Pfalz, Germany). Exocytosis was monitored as increases in cell membrane capacitance (Neher & Marty Proc. Natl. Acad, Sci. USA, Vol. 79, pp. 6712-6716,1982) using the standard whole-cell configuration of the patch-clamp technique and an EPC-9 patch-clamp amplifier and the Pulse software (v. 8.01; HEKA Elektronik). […]"}, "mouse pancreatic β-cells": {"test_system": "mouse pancreatic β-cells", "experiment": "Ca2+-evoked exocytosis (cell capacitance, whole-cell patch clamp) in single mouse pancreatic β-cells", "assay_type": "cell-based", "conditions": "100 μM compound in pipette solution, free Ca2+ 0.2 μM", "source_text": "as §1, §2"}}, "note": "Several values for one entry are separate records, joined by “and”; a condition that tells them apart may be missing. Equal values may be shown once.", "data": [{"compound": "COc1cccc(C(CC2=NCCN2)c2ccccn2)c1", "note": "(single isomer, unassigned; (-)) [compound (Ex 2), (−)-2-(2-(4,5-Dihydro-1H-imidazol-2-yl)-1-(3-methoxyphenyl)ethyl)pyridine]", "values": [{"measurement": "whole-cell KATP current / channel activity, % of prestimulatory level", "setting": "[1]", "value": "90±4% and 90+4%"}, {"measurement": "effect on Ca2+-evoked exocytosis (in words)", "setting": "mouse pancreatic β-cells", "value": "strong stimulation of exocytosis"}, {"measurement": "rate of exocytosis (ΔCm/Δt) measured over the first 60 s after establishment of the whole-cell configuration", "setting": "mouse pancreatic β-cells; control 5.0±0.3 fF/s, P<0.025", "value": "9.4±1.7", "unit": "fF/s"}]}]}
